Measurements: US10921397B2, “Hyperpolarized micro-NMR system and methods” (Memorial Sloan Kettering Cancer Center, priority 2016, dated 2021)

Experiments:
K562 cells [1] = test: Lactate concentration (pool size) in cell culture media by conventional high-field NMR spectrometer; format: cell-based; conditions: 1 μM imatinib
Description: Each lactate signal was acquired by a conventional high-field NMR spectrometer. All measurements were performed in triplicate. Error bars show the standard deviation.

LDH-A = test: Western blot of LDH-A phosphorylation in K562 cells after treatment; format: cell-based; conditions: imatinib treatment, 24 hours
Excerpt: Imatinib was purchased from Cayman Chemical.

K562 cells [2] = conditions: 24 hours of drug treatment, concentrations as high as 1 μM
Description: K562 cells were plated with a concentration of 100,000 cells/mL in 10 mL complete RPMI media. […] Two sets of four flasks (two flasks per each sample) were prepared and stored in an incubator for 24 hours. Cell number and viability were checked after 24 hours, and cells were washed with complete RPMI media once and prepared for hyperpolarization experiments.
The cell number and the viability were measured using CELLOMETER Mini cell counter (Nexcelom Bioscience); the cell suspension was mixed at 1:1 ratio with the trypan blue solution before the measurement. For each measurement, the cell suspension was diluted to make its concentration within a range of 0.8-2×10^6/mL.

SMILES: Cc1ccc(NC(=O)c2ccc(CN3CCN(C)CC3)cc2)cc1Nc1nccc(-c2cccnc2)n1 [imatinib, Imatinib]
- time required to make a significant change in the lactate pool size (K562 cells [1]): about 12 hours
- phosphorylation of LDH-A (LDH-A): decreased phosphorylation
- cell viability (K562 cells [2]): not significantly changed
